For seven compounds, Papp and concentration results are on record in ChEMBL document CHEMBL1137488, “Strategies toward improving the brain penetration of macrocyclic tertiary carbinamine BACE-1 inhibitors” (Bioorg Med Chem Lett, 2007).

For the first data set, the system named is P-glycoprotein. Description: Apparent permeability in human KBV1 cells overexpressing P-glycoprotein. In kind it is ADME, cell-based, KB-V1.
Conditions: not given
In the case of `CN(c1cc2cc(n1)N(Cc1ccccc1)CCCCc1cccc(c1)C[C@@](C)(N)C(=O)OC2)S(C)(=O)=O`, the Papp was 20 ×10⁻⁶ cm/s.
The same measure, in the same setting: the same measure for `CC1CCc2cccc(c2)C[C@@](C)(N)C(=O)OCc2cc(nc(N(C)S(C)(=O)=O)c2)CC1` (stereo partly drawn): 14 ×10⁻⁶ cm/s.
On to `CN(c1cc2cc(n1)CCC(c1ccccc1)CCc1cccc(c1)C[C@@](C)(N)C(=O)OC2)S(C)(=O)=O` (stereo partly drawn), for which the Papp came out at 9 ×10⁻⁶ cm/s.
As for `CN(c1cc2cc(n1)NCCCCc1cccc(c1)C[C@@](C)(N)C(=O)OC2)S(C)(=O)=O`, the Papp was 11 ×10⁻⁶ cm/s.
On the same count and under the same terms, with `CN(c1cc2cc(n1)N(CC1CC1)CCCCc1cccc(c1)C[C@@](C)(N)C(=O)OC2)S(C)(=O)=O` the figure was 8 ×10⁻⁶ cm/s.
Same read-out and setting: the same measure for `CC1CCc2cccc(c2)C[C@@](C)(N)C(=O)OCc2cc(cc(N(C)S(C)(=O)=O)c2)CC1` (stereo partly drawn): 16 ×10⁻⁶ cm/s; for `CN(c1cc2cc(n1)CCCCCc1cccc(c1)C[C@@](C)(N)C(=O)OC2)S(C)(=O)=O`: 29 ×10⁻⁶ cm/s.

Tested on in a further data set: not listed separately
Description: Drug level in mouse brain at 30 mg/kg, ip after 2 hrs. In kind it is ADME, organism-based. Details: dose 30 mg/kg, route intraperitoneal. The following applies: read-out: Drug uptake.
With `CC1CCc2cccc(c2)C[C@@](C)(N)C(=O)OCc2cc(nc(N(C)S(C)(=O)=O)c2)CC1` (stereo partly drawn), the concentration at 2 h worked out at 637 nM.
